Results published in PMC9505538, “P-Glycoprotein (MDR1/ABCB1) Restricts Brain Accumulation of the Novel EGFR Inhibitor EAI045 and Oral Elacridar Coadministration Enhances Its Brain Accumulation and Oral Exposure” (Pharmaceuticals, 2022).

Tests used:
human ABCG2 = biological target: T1, human ABCG2 (Homo sapiens, UniProt Q9UNQ0); experiment: Transepithelial transport of EAI045, MDCK-II cells transduced with human ABCG2; assay type: in vitro ADME; conditions: for efflux ratio r (relative transport ratio): EAI045 5 μM
T1 construct: expressed in transfected cells; host or cells: MDCK-II cells, stably transduced, generated in the authors' institute
T1 sequence (Q9UNQ0 1-655): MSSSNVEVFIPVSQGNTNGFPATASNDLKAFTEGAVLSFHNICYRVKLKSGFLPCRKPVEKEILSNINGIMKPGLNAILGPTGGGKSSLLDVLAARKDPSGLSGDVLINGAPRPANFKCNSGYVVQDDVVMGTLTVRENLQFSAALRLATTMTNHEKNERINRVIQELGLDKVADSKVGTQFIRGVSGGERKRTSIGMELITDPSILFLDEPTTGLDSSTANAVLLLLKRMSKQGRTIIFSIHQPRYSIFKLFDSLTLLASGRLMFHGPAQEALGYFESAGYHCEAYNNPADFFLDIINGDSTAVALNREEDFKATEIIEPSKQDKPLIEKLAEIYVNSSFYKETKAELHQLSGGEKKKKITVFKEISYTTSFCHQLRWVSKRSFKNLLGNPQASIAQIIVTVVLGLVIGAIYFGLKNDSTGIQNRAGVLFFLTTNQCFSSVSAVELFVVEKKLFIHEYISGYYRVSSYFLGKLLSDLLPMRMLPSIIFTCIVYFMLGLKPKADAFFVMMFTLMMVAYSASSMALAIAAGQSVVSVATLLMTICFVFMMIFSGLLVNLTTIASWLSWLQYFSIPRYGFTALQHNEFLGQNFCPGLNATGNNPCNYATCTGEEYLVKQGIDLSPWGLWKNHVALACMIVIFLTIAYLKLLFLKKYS
Protocol: (§1) Transport of EAI045 (5 μM) across epithelia was tested using cell layers of Madin–Darby Canine Kidney (MDCK-II) cells and derived clones expressing hABCB1, hABCG2, or mAbcg2 cDNA. […] In cells overexpressing hABCB1, there was clear transport of EAI045 in the apical direction (r = 5.5, Figure 1C). […] To evaluate the interaction between hABCG2 and mAbcg2 and EAI045, zosuquidar (5 μM) was added to inhibit any endogenous canine ABCB1. In cells overexpressing hABCG2, the BA transport of EAI045 was somewhat increased relative to the AB transport, resulting in an efflux ratio of 1.4 (Figure 1E).
(§2) Figure 1 In vitro transepithelial transport of EAI045 (5 μM) using MCDK-II parental cells (A,B) or transduced with human ABCB1 (C,D), human ABCG2 (E,F), or murine Abcg2 (G,H) cDNA. At t = 0 EAI045 was added in the donor compartment (either apical or basolateral). At 1, 2, and 4 h EAI045 was quantified in the acceptor compartment and the cumulative total transported amount per well was plotted (n = 3). Zosuquidar (5 μM) was added to inhibit the human and/or the endogenous ABCB1, while Ko143 (5 μM) was added to inhibit the human or murine ABCG2. r, relative transport ratio. […] Points, mean; bars, SD. TEXT PRINTED IN THE PICTURE: (A) no label printed: Parental: r = 1.7 | (B) no label printed: Parental + Zos.: r = 1.1 | (C) no label printed: hABCB1: r = 5.5 | (D) no label printed: hABCB1 + Zos.: r = 1.3 | (E) no label printed: hABCG2 + Zos.: r = 1.4 | (F) no label printed: hABCG2 + Zos. + Ko143: r = 1.1 | (G) no label printed: mAbcg2 + Zos.: r = 1.8 | (H) no label printed: mAbcg2 + Zos. + Ko143: r = 1.4
(§3) Madin–Darby Canine Kidney (MDCK-II) cells (ECACC 00062107) stably transduced with human (h) ABCB1, hABCG2, or mouse (m) Abcg2 cDNA were generated in our institute between 1998 and 2005. […] In short, cells were allowed to grow an intact monolayer in 3 days, which was monitored with transepithelial electrical resistance (TEER) measurements, both before and after the transport phase. […] Proper functionality of these cell lines was monitored by continual testing with a variety of drug substrates.

human ABCB1 = biological target: T2, human ABCB1 (Homo sapiens, UniProt P08183); experiment: Transepithelial transport of EAI045, MDCK-II cells transduced with human ABCB1; assay type: in vitro ADME; conditions: for efflux ratio r (relative transport ratio): EAI045 5 μM
T2 construct: expressed in transfected cells; host or cells: MDCK-II cells, stably transduced, generated in the authors' institute
Protocol: as §1, §2, §3

T2 sequence (P08183 whole entry): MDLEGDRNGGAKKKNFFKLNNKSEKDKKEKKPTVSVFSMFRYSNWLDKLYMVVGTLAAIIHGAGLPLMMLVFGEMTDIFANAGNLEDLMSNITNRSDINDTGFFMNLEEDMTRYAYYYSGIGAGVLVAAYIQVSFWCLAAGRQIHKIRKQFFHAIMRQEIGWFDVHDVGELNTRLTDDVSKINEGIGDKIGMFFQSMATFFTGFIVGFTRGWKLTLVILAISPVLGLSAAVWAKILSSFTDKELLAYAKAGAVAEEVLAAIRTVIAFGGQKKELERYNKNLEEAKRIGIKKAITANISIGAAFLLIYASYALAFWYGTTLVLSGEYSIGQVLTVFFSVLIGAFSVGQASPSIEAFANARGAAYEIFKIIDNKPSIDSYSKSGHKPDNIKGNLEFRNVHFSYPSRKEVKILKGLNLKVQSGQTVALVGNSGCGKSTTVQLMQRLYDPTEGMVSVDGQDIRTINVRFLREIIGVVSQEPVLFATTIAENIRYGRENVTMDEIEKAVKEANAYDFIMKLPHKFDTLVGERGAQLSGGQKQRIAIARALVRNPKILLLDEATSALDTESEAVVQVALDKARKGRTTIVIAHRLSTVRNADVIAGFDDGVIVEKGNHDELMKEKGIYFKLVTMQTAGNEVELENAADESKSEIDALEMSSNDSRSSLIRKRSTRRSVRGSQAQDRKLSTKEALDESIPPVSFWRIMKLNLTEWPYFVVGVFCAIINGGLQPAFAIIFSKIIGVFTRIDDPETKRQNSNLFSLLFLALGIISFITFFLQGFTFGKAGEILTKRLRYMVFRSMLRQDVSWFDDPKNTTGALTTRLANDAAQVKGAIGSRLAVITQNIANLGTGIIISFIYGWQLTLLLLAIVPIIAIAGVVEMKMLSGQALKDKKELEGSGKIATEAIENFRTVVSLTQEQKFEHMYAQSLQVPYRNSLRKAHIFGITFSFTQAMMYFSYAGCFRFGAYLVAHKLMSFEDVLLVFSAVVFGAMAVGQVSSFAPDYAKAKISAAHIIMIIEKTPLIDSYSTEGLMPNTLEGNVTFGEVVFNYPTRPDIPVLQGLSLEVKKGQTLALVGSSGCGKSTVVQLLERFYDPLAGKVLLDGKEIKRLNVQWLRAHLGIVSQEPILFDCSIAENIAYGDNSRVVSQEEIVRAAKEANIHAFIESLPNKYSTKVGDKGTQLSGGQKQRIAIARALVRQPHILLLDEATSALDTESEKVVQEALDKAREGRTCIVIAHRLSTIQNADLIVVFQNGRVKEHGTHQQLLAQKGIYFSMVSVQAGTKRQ

efflux ratio r (relative transport ratio) (human ABCG2; hABCG2 + zosuquidar 5 μM): 1.4 | efflux ratio r (relative transport ratio) (human ABCG2; hABCG2 + zosuquidar 5 μM + Ko143 5 μM): 1.1 | transport by human ABCG2 (human ABCG2; in vitro): at best slightly transported | efflux ratio r (relative transport ratio) (human ABCB1; hABCB1 + zosuquidar 5 μM): 1.3 | efflux ratio r (relative transport ratio) (human ABCB1; hABCB1, no inhibitor): 5.5 | transport substrate of hABCB1 (human ABCB1; in vitro): good transport substrate
Structure (SMILES): O=C(Nc1nccs1)C(c1cc(F)ccc1O)N1Cc2ccccc2C1=O (stereo not drawn) [EAI045]
